Measured values reported in patent US4681872A (priority 1985, dated 1987).
In brackets after ≈: the same amount, converted by molar mass. Where two headings read alike, the source gives them in different places.

Tests used:
Bact. vulgatus 792 = assay: antimicrobial spectrum, agar dilution MIC; format: cell-based; settings: BHI agar, 35°-37° C., 20-24 hours
[1] = test system: Propionibacterium acnes 132; assay: antimicrobial spectrum, agar dilution MIC
[2] = test system: Strep. agalactiae CMX 508; assay: antimicrobial spectrum, agar dilution MIC
Staph. aureus = assay: acute mouse protection test; format: in vivo, Swiss albino mice; settings: for ED50: Staphylococcus aureus, 168 h
Staph. aureus CYR 1162 = assay: antimicrobial spectrum, agar dilution MIC; format: cell-based; settings: 35°-37° C., 20-24 hours
Cl. difficile ATCC 9689 = assay: antimicrobial spectrum, agar dilution MIC
[3] = test system: Cl. perfringens SFBC 2026; assay: microbe, parasite or virus in culture; format: cell-based
Bact. fragilis SFM2906A = assay: antimicrobial spectrum, agar dilution MIC
Bact. fragilis SFM2975-7 = assay: antimicrobial spectrum, agar dilution MIC; format: cell-based; settings: 35°-37° C., 20-24 hours
[4] = test system: Staph. saprophyticus ATCC 15305; assay: antimicrobial spectrum, agar dilution MIC; format: cell-based; settings: 35°-37° C., 20-24 hours
Staph. aureus CMX 686B = assay: antimicrobial spectrum, agar dilution MIC
[5] = test system: Bact. thetaiotamicron 3304; assay: antimicrobial spectrum, agar dilution MIC; format: cell-based; settings: BHI agar, 35°-37° C., 20-24 hours
Staph. epidermidis 3519 = assay: antimicrobial spectrum, agar dilution MIC
Enterococcus CMX 736F = assay: antimicrobial spectrum, agar dilution MIC
Staph. aureus ATCC 25923 = assay: antimicrobial spectrum, agar dilution MIC; format: cell-based; settings: 35°-37° C., 20-24 hours
Bact. fragilis SFM2929-1 = assay: antimicrobial spectrum, agar dilution MIC
Staph. aureus A-5278 = assay: antimicrobial spectrum, agar dilution MIC
Strep. faecalis CMX 663F = assay: antimicrobial spectrum, agar dilution MIC
Pep. magnus ATCC 29328 = assay: antimicrobial spectrum, agar dilution MIC; format: cell-based; settings: 35°-37° C., 20-24 hours
Staph. aureus CYR 1150 = assay: antimicrobial spectrum, agar dilution MIC; format: cell-based; settings: 35°-37° C., 20-24 hours
[6] = test system: Ent. aerogenes ATCC 10348; assay: antimicrobial spectrum, agar dilution MIC
E. coli DC-2 = assay: antimicrobial spectrum, agar dilution MIC
Strep. pyogenes EES61 = assay: antimicrobial spectrum, agar dilution MIC; format: cell-based; settings: BHI agar, 35°-37° C., 20-24 hours
Cl. perfringens 788 = assay: microbe, parasite or virus in culture; format: cell-based
Enterococcus A-5168 = assay: antimicrobial spectrum, agar dilution MIC
Strep. bovis A5169 = assay: antimicrobial spectrum, agar dilution MIC; format: cell-based; settings: BHI agar, 35°-37° C., 20-24 hours
Bact. fragilis 105 = assay: antimicrobial spectrum, agar dilution MIC; format: cell-based; settings: BHI agar, 35°-37° C., 20-24 hours
Acinetobacter SP CMX 669 = assay: antimicrobial spectrum, agar dilution MIC
[7] = test system: Staph. epidermidis 3519 RARI; assay: microbe, parasite or virus in culture; format: cell-based
[8] = test system: Peptostrep. anaerobius ATCC 27337; assay: antimicrobial spectrum, agar dilution MIC
Enterococcus GYR 1166 = assay: microbe, parasite or virus in culture; format: cell-based
[9] = test system: Pseudomonas aeruginosa K799/61; assay: antimicrobial spectrum, agar dilution MIC
Cl. perfringens 104 = assay: microbe, parasite or virus in culture; format: cell-based
E. coli KNK 437 = assay: antimicrobial spectrum, agar dilution MIC

CCC1OC(=O)C(C)C(OC2CC(C)(OC)CC(C)O2)C(C)C(OC2OC(C)CC(N(C)C)C2O)C(C)(O)CC(C)C(=O)C(C)C2OC(=O)OC12C (stereo not shown) [4"-deoxyerythromycin A 11,12-carbonate]
MIC (Bact. vulgatus 792): .2 µg/mL (≈ 0.269 µM) | MIC ([1]; Propionibacterium acnes 132, BHI agar, 35°-37° C., 20-24 hours): .05 µg/mL (≈ 0.0672 µM) | MIC ([2]; Strep. agalactiae CMX 508, BHI agar, 35°-37° C., 20-24 hours): .02 µg/mL (≈ 0.0269 µM) | ED-50 (Staph. aureus; Staph. aureus, mice, oral, dosed 1 and 5 hours post-infection, observed 7 days): 31.4 mg/kg | ED-50 (Staph. aureus; Staph. aureus, mice, subcutaneous, dosed 1 and 5 hours post-infection, observed 7 days): 36.3 mg/kg | MIC (Staph. aureus CYR 1162; BHI agar): .06 µg/mL (≈ 0.0807 µM) | MIC (Cl. difficile ATCC 9689; Cl. difficile ATCC 9689, BHI agar, 35°-37° C., 20-24 hours): .4 µg/mL (≈ 0.538 µM) | MIC ([3]; Cl. perfringens SFBC 2026, BHI agar, 35°-37° C., 20-24 hours): .4 µg/mL (≈ 0.538 µM) | MIC (Bact. fragilis SFM2906A; Bact. fragilis SFM2906A, BHI agar, 35°-37° C., 20-24 hours): .8 µg/mL (≈ 1.08 µM) | MIC (Bact. fragilis SFM2975-7; BHI agar): .8 µg/mL (≈ 1.08 µM) | MIC ([4]; BHI agar): .03 µg/mL (≈ 0.0403 µM) | MIC (Staph. aureus CMX 686B; Staph. aureus CMX 686B, BHI agar, 35°-37° C., 20-24 hours): .1 µg/mL (≈ 0.134 µM) | MIC [5]: 3.1 µg/mL (≈ 4.17 µM) | MIC (Staph. epidermidis 3519; Staph. epidermidis 3519, BHI agar, 35°-37° C., 20-24 hours): .1 µg/mL (≈ 0.134 µM) | MIC (Enterococcus CMX 736F; Enterococcus CMX 736F, BHI agar, 35°-37° C., 20-24 hours): .12 µg/mL (≈ 0.161 µM) | MIC (Staph. aureus ATCC 25923; BHI agar): .03 µg/mL (≈ 0.0403 µM) | MIC (Bact. fragilis SFM2929-1; Bact. fragilis SFM2929-1, BHI agar, 35°-37° C., 20-24 hours): 1.6 µg/mL (≈ 2.15 µM) | MIC (Staph. aureus A-5278; Staph. aureus A-5278, BHI agar, 35°-37° C., 20-24 hours): 128 µg/mL (≈ 172 µM) | MIC (Strep. faecalis CMX 663F; Strep. faecalis CMX 663F, BHI agar, 35°-37° C., 20-24 hours): 2 µg/mL (≈ 2.69 µM) | MIC (Pep. magnus ATCC 29328; BHI agar): .2 µg/mL (≈ 0.269 µM) | MIC (Staph. aureus CYR 1150; BHI agar): .03 µg/mL (≈ 0.0403 µM) | MIC ([6]; Ent. aerogenes ATCC 10348, BHI agar, 35°-37° C., 20-24 hours): 50 µg/mL (≈ 67.2 µM) | MIC (E. coli DC-2; E. coli DC-2, BHI agar, 35°-37° C., 20-24 hours): 25 µg/mL (≈ 33.6 µM) | MIC (Strep. pyogenes EES61): .01 µg/mL (≈ 0.0134 µM) | MIC (Cl. perfringens 788; Cl. perfringens 788, BHI agar, 35°-37° C., 20-24 hours): .4 µg/mL (≈ 0.538 µM) | MIC (Enterococcus A-5168; Enterococcus A-5168, BHI agar, 35°-37° C., 20-24 hours): 128 µg/mL (≈ 172 µM) | MIC (Strep. bovis A5169): .005 µg/mL (≈ 0.00672 µM) | MIC (Bact. fragilis 105): .2 µg/mL (≈ 0.269 µM) | MIC (Acinetobacter SP CMX 669; Acinetobacter SP CMX 669, BHI agar, 35°-37° C., 20-24 hours): 6.2 µg/mL (≈ 8.33 µM) | MIC ([7]; Staph. epidermidis 3519 RARI, BHI agar, 35°-37° C., 20-24 hours): .1 µg/mL (≈ 0.134 µM) | MIC ([8]; Peptostrep. anaerobius ATCC 27337, BHI agar, 35°-37° C., 20-24 hours): .05 µg/mL (≈ 0.0672 µM) | MIC (Enterococcus GYR 1166; Enterococcus GYR 1166, BHI agar, 35°-37° C., 20-24 hours): .12 µg/mL (≈ 0.161 µM) | MIC ([9]; Pseudomonas aeruginosa K799/61, BHI agar, 35°-37° C., 20-24 hours): 1.56 µg/mL (≈ 2.1 µM) | MIC (Cl. perfringens 104; Cl. perfringens 104, BHI agar, 35°-37° C., 20-24 hours): .4 µg/mL (≈ 0.538 µM) | MIC (E. coli KNK 437; E. coli KNK 437, BHI agar, 35°-37° C., 20-24 hours): 25 µg/mL (≈ 33.6 µM)

CC[C@H]1OC(=O)[C@H](C)[C@@H](O[C@H]2C[C@@](C)(OC)[C@@H](O)[C@H](C)O2)[C@H](C)[C@@H](O[C@@H]2O[C@H](C)C[C@H](N(C)C)[C@H]2O)[C@](C)(O)C[C@@H](C)C(=O)[C@H](C)[C@@H](O)[C@]1(C)O [Erythromycin A, reference compound]
MIC (Bact. vulgatus 792; Phocaeicola vulgatus, read-out: MIC): 0.4 µg/mL (≈ 0.545 µM) | MIC ([1]; Cutibacterium acnes, 132): 0.05 µg/mL (≈ 0.0681 µM) | MIC ([2]; Streptococcus agalactiae, CMX508): 0.05 µg/mL (≈ 0.0681 µM) | ED50 (Staph. aureus; Staph. aureus, mice, oral, dosed 1 and 5 hours post-infection, observed 7 days, read-out: ED-50): 141 mg/kg | ED50 (Staph. aureus; sc): 21.4 mg/kg | MIC (Staph. aureus CYR 1162; Staphylococcus aureus, CYR1162, BHI agar, read-out: MIC): 0.06 µg/mL (≈ 0.0818 µM) | MIC (Cl. difficile ATCC 9689; Clostridioides difficile, ATCC9689): 0.4 µg/mL (≈ 0.545 µM) | MIC ([3]; Clostridium perfringens, SFBC2026): 1.6 µg/mL (≈ 2.18 µM) | MIC (Bact. fragilis SFM2906A; Bacteroides fragilis, SFM2906A): 3.1 µg/mL (≈ 4.22 µM) | MIC (Bact. fragilis SFM2975-7; Bacteroides fragilis, SFM29757, BHI agar, read-out: MIC): 6.3 µg/mL (≈ 8.58 µM) | MIC ([4]; Staphylococcus saprophyticus, ATCC15305, BHI agar, read-out: MIC): 0.06 µg/mL (≈ 0.0818 µM) | MIC (Staph. aureus CMX 686B; Staphylococcus aureus, CMX686B): 0.39 µg/mL (≈ 0.531 µM) | MIC ([5]; read-out: MIC): 6.3 µg/mL (≈ 8.58 µM) | MIC (Staph. epidermidis 3519; Staphylococcus epidermidis, 3519): 0.39 µg/mL (≈ 0.531 µM) | MIC (Enterococcus CMX 736F; Enterococcus, CMX736F): 0.1 µg/mL (≈ 0.136 µM) | MIC (Staph. aureus ATCC 25923; Staphylococcus aureus, ATCC25923, BHI agar, read-out: MIC): 0.06 µg/mL (≈ 0.0818 µM) | MIC (Bact. fragilis SFM2929-1; Bacteroides fragilis, SFM29291): 3.1 µg/mL (≈ 4.22 µM) | MIC (Staph. aureus A-5278; Staphylococcus aureus, A5278): 128 µg/mL (≈ 174 µM) | MIC (Strep. faecalis CMX 663F; Enterococcus faecalis, CMX663F): 16 µg/mL (≈ 21.8 µM) | MIC (Pep. magnus ATCC 29328; Finegoldia magna, ATCC29328, BHI agar, read-out: MIC): 0.4 µg/mL (≈ 0.545 µM) | MIC (Staph. aureus CYR 1150; Staphylococcus aureus, CYR1150, BHI agar, read-out: MIC): 0.12 µg/mL (≈ 0.164 µM) | MIC ([6]; Klebsiella aerogenes, ATCC10348): 100 µg/mL (≈ 136 µM) | MIC (E. coli DC-2; Escherichia coli, DC2): 50 µg/mL (≈ 68.1 µM) | MIC (Strep. pyogenes EES61; Streptococcus pyogenes, read-out: MIC): 0.01 µg/mL (≈ 0.0136 µM) | MIC (Cl. perfringens 788; Clostridium perfringens, 788): 1.6 µg/mL (≈ 2.18 µM) | MIC (Enterococcus A-5168; Enterococcus, A5168): 128 µg/mL (≈ 174 µM) | MIC (Strep. bovis A5169; Streptococcus equinus, read-out: MIC): 0.01 µg/mL (≈ 0.0136 µM) | MIC (Bact. fragilis 105; Bacteroides fragilis, read-out: MIC): 0.4 µg/mL (≈ 0.545 µM) | MIC (Acinetobacter SP CMX 669; Acinetobacter, SPCMX669): 12.5 µg/mL (≈ 17 µM) | MIC ([7]; Staphylococcus epidermidis, 3519RARI): 0.39 µg/mL (≈ 0.531 µM) | MIC [8]: 0.05 µg/mL (≈ 0.0681 µM) | MIC (Enterococcus GYR 1166; Enterococcus, GYR1166): 1 µg/mL (≈ 1.36 µM) | MIC ([9]; Pseudomonas aeruginosa, K799/61): 3.1 µg/mL (≈ 4.22 µM) | MIC (Cl. perfringens 104; Clostridium perfringens, 104): 1.6 µg/mL (≈ 2.18 µM) | MIC (E. coli KNK 437; Escherichia coli, KNK437): 100 µg/mL (≈ 136 µM)
